Experimental data: the CheMixHub ionic liquid set

Test: xn = mol fraction of the nth substance listed
Conditions: 101 kPa

CC1COC(=O)O1 (configuration not stated) + CCCC[N+]1(C)CCCC1.O=S(=O)([N-]S(=O)(=O)C(F)(F)F)C(F)(F)F
x1 = 1
Conditions	electrical conductivity [S/m]	viscosity [mPa·s]
293.15 K	0.002	2.72
303.15 K	0.002	2.29
313.15 K	0.002	2

CCCC[N+]1(C)CCCC1.N#C[N-]C#N + CCCC[N+]1(C)CCCC1.O=S(=O)([N-]S(=O)(=O)C(F)(F)F)C(F)(F)F
frequency 0 MHz, x2 = 0.5
Conditions	electrical conductivity [S/m]
318 K	0.962
323 K	1.12

x2 = 0.5
Conditions	viscosity [mPa·s]
318 K	22.7
323 K	19.7

CCC[N+]1(C)CCCC1.O=S(=O)([N-]S(=O)(=O)C(F)(F)F)C(F)(F)F + CCCC[N+]1(C)CCCC1.O=S(=O)([N-]S(=O)(=O)C(F)(F)F)C(F)(F)F
Conditions	electrical conductivity [S/m]	viscosity [mPa·s]
293.15 K, x2 = 0.25	0.248	81.4
333.15 K, x2 = 0	1.18	18.8
333.15 K, x2 = 0.75	1.01	20.7
353.15 K, x2 = 0.5	1.5	12.2

CCCC[N+]1(C)CCCC1.N#C[N-]C#N + CCCC[N+]1(C)CCCC1.O=S(=O)([N-]S(=O)(=O)C(F)(F)F)C(F)(F)F + O=S(=O)([N-]S(=O)(=O)C(F)(F)F)C(F)(F)F.[Li+]
electrical conductivity [S/m], frequency 0 MHz
Conditions	298 K	303 K	308 K	313 K	318 K	323 K
x2 = 0.475, x1 = 0.475	0.481	0.572	0.67	0.788	0.912	1.05
x2 = 0.5, x1 = 0.5	0.565	0.642	0.746	0.857	0.962	1.12

viscosity [mPa·s]
Conditions	298 K	303 K	308 K	313 K	318 K	323 K	328 K
x2 = 0.475, x1 = 0.475	60.7	51.9	42.6	35.9	31.2	27.6	24.2
x2 = 0.5, x1 = 0.5	51.3	–	32	26.7	22.7	19.7	17.06

CC[n+]1ccn(C)c1.N#C[N-]C#N + CCCC[N+](C)(CCCC)CCCC.N#C[N-]C#N
x1 = 1
Conditions	viscosity [mPa·s]
303.15 K	12.97
323.15 K	8.28
343.15 K	5.49
353.15 K	4.63
